“Also recorded” adds a separate entry of the source.
Legend:
Dopamine (DA) = experiment: Microdialysis studies in mice brain (cortex, striatum); assay type: in vivo; conditions: 10 mg/kg s.c., n=1-2
Description: In a small subset of mice, microdialysis was performed with a probe placed in either the striatum or cortex by use of stereotaxis.

[1] = Phase I ascending single oral dose study: safety and tolerability; assay type: in vivo, human
Description: Study design. The study was a Phase I, randomised, double-blind, placebo-controlled, ascending single oral dose, safety, tolerability, pharmacokinetic (PK) and pharmacodynamics (PD) study of IP2015 in healthy male subjects.
Each subject received one oral dose of IP2015 or matched placebo. […] The dose level was to be escalated to a maximum of 0.05 mg in Cohort 2 and a maximum of 0.2 mg in Cohort 3. The doses in the remaining five cohorts were to be determined based on the dose escalation criteria.
The randomisation schemes were generated by a statistician using SAS PROC Plan.
The doses used in each cohort were as follows: • Cohort 1 - 0.01 mg • Cohort 2 - 0.05 mg • Cohort 3 - 0.2 mg • Cohort 4 - 0.6 mg • Cohort 5 - 1.8 mg • Cohort 6 - 5.4 mg • Cohort 7 - 16.2 mg • Cohort 8 - 10 mg
Evaluation. The study evaluated the clinical safety data from adverse event (AE) reporting, 12-lead electrocardiogram (ECG), cardiac telemetry, vital signs (standing and supine blood pressure (BP), heart rate (HR), oral temperature and clinical laboratory evaluations (chemistry, haematology, urinalysis) and physical examinations in healthy male subjects.

[2] = Phase I crossover study, intradermal capsaicin model: safety evaluation (TEAEs); assay type: in vivo, human
Description: (§1) In order to maintain the blind, a double dummy approach was used.
Safety was assessed through AE reporting, 12-lead ECG, vital signs, physical examinations and clinical laboratory evaluations. Pharmacokinetics was assessed by blood sampling.

[3] = system: intradermal capsaicin model; experiment: Phase I crossover study, intradermal capsaicin model: pharmacodynamics; assay type: in vivo, human; conditions: for Pain Score of Brush-evoked Allodynia Using an NRS, Adjusted Mean (MMRM) / Subjective Rating of Pain, Adjusted Mean (MMRM): overall, all timepoints, N=24; for Pain Score of Brush-evoked Allodynia Using an NRS, Adjusted Mean (MMRM): placebo 2.0; for Subjective Rating of Pain, Adjusted Mean (MMRM): placebo 17.1
Excerpt: Participants. The volunteers were males aged 18 to 55 years with a body mass index (BMI) of 18 to 30 kg/m2. They were healthy as determined by a responsible physician, based on a medical evaluation including medical history, physical examination, concomitant medication, vital signs, 12-lead ECG, and clinical laboratory evaluations. The participants must have been in good general health with a skin type compatible with the measures and without significant skin allergies, pigmentary disorders or any active dermatological conditions. […] The participants provided written informed consent, which included compliance with the requirements and restrictions listed in the consent form, including the use of a condom during the trial and for 3 months after their final dose of trial medication, if their partner was a woman of childbearing potential.
Clinical and laboratory data. Prior to and 15, 30, 60, 90 and 120 minutes after administration of capsaicin, measurements of pain, hyperalgesia, allodynia and AF were performed. At 2 hours post-capsaicin injection, subjects completed a quantitative sensory testing (QST) battery at two sites on the volar surface of each forearm. One site was the most recent capsaicin injection site, and the other was at an equivalent point on the opposite forearm. […] There was a minimum washout period of 5 days between treatment periods.
Reconstitution was performed by a Pharmacist at the clinical site prior to dosing.
as §1
Subjects were randomised to receive a single administration of a treatment combination during each treatment period. All subjects received each treatment combination once only.
Evaluation methods: Pharmacodynamics was assessed through pain measurements (response to ID injection of capsaicin, measurement of pain using a visual analogue scale, area and pain score of hyperalgesia, area and pain score of allodynia, and AF) and the ID capsaicin model. Subjects also completed a QST battery at two sites on the volar surface of either forearm. The QST battery included the following tests: thermal detection and pain thresholds, mechanical detection and pain thresholds, stimulus/response functions, wind-up ratio and pressure pain threshold.
For measurement of pain, a visual analogue scale (VAS) was used. The VAS consisted of a 100 mm line, with 0 representing "no pain" and 100 representing "worst pain imaginable". Subjects were asked to mark the VAS using a single vertical stroke at the point they considered to appropriately reflect their level of pain from the injection of capsaicin (not general pain). A new VAS was provided for each time point and subjects were not allowed to see their previous VAS responses. The VAS was scored by measuring from the left-hand end of the scale to the point where the subject had marked the line, and the distance in mm was recorded.
Response to pain was also assessed by a numeric rating scale (NRS). For example, by using an 11-point numeric rating scale ranging from 0 ("no pain") to 10 ("worst possible pain") and asking the subject to rate their pain. A NRS scale of 0 to 100 was also used in some assesments.
The thermal tests were performed using a thermode probe (Medoc). Cold and warm detection thresholds were measured first, then cold pain and heat pain thresholds were determined. The mean threshold temperature of 3 consecutive measurements was calculated. All thresholds were obtained with ramped stimuli (1°C/sec) that were terminated when the subject pressed a button. For thermal detection thresholds the ramp back to baseline was 1°C/sec, while for thermal pain thresholds this ramp was chosen at maximum device capacity resulting in approximately a nominal 5°C/sec.
The mechanical detection threshold was measured with a standardised set of modified von Frey nylons that exerted forces upon bending between 0.25 and 512 mN graded by a factor of 2 (1 to 2 seconds contact time). […]

COc1cc2ccc(O[C@@H]3C[C@H]4CC[C@@H](C3)N4)cc2oc1=O [IP2015, exo-7-[(8-azabicyclo[3.2.1]octan-3-yl)oxy]-3-methoxy-chromen-2-one]
Dopamine (DA) elevation in cortex (Dopamine (DA)): increased; also recorded: most pronounced | Dopamine (DA) elevation in striatum (Dopamine (DA)): less and only some elevation | incidence of TEAEs ([1]; 0.01 mg to 10 mg dose range): relatively low | mean ECG parameters ([1]; 0.01 mg to 10 mg dose range): no significant treatment- or dose-related trends | vital sign values, mean or individual subject ([1]; 0.01 mg to 10 mg dose range): no significant treatment- or dose-related trends | incidence of side effects compared to the 0.01 mg to 10 mg dose range ([1]; 16.2 mg): increased | subjects with sustained tachycardia for several hours ([1]; 16.2 mg): 2 subjects | subjects reporting at least one TEAE ([1]; 16.2 mg dose group (all subjects of the group)): 4 subjects | standing pulse rate ([1]; 16.2 mg, 2, 3, 4, 6, 8, 10 and 12 hours postdose): increases from baseline | supine pulse rate ([1]; 16.2 mg, 6, 8 and 10 hours postdose): increases from baseline | heart rate (ECG) ([1]; 16.2 mg, 8 and 12 hours postdose): increases from baseline | subjects experiencing TEAEs ([1]; of the 40 subjects who received IP2015, all dose groups): 16 subjects | total TEAEs ([1]; the 40 subjects who received IP2015, all dose groups): 32 TEAEs | severity of all TEAEs ([2]; 5 mg IP2015 and 10 mg IP2015): mild | incidence of TEAEs (share of subjects) ([2]; 5 mg IP2015 single oral dose): 29.2% | number of TEAEs reported ([2]; 5 mg IP2015 single oral dose): 10 events | subjects reporting TEAEs ([2]; 5 mg IP2015 single oral dose): 7 subjects | incidence of TEAEs (share of subjects) ([2]; 10 mg IP2015 single oral dose): 54.2% | number of TEAEs reported ([2]; 10 mg IP2015 single oral dose): 19 events | subjects reporting TEAEs ([2]; 10 mg IP2015 single oral dose): 13 subjects | area of brush-evoked allodynia compared to placebo ([3]; 5 mg IP2015, 120 min after capsaicin injection, P=0.049): significantly lowered | Pain Score of Brush-evoked Allodynia Using an NRS, Adjusted Mean (MMRM) ([3]; 5 mg IP2015): 1.8 | Subjective Rating of Pain, Adjusted Mean (MMRM) ([3]; 5 mg IP2015 single oral dose): 15.6 mm | adjusted mean pain score of hyperalgesia compared to placebo ([3]; 5 mg and 10 mg IP2015, 300 mg pregabalin, all post-capsaicin injection timepoints): lower | average decrease in hyperalgesic area across all timepoints compared to placebo ([3]; 10 mg IP2015): 4 cm^2 | decrease of subjective rating of pain compared to placebo ([3]; 10 mg IP2015, 15 min post capsaicin): 7.2 mm | decrease of subjective rating of pain compared to placebo ([3]; 10 mg IP2015, 30 min post capsaicin): 8.3 mm | decrease of subjective rating of pain compared to placebo ([3]; 10 mg IP2015, 60 min post capsaicin): 7.5 mm | Pain Score of Brush-evoked Allodynia Using an NRS, Adjusted Mean (MMRM) ([3]; 10 mg IP2015): 1.6 | overall increase in warm detection threshold between test and control areas (QST) ([3]; 10 mg IP2015, p = 0.013, post-hoc analysis): significant | pressure pain threshold (QST) ([3]; 10 mg IP2015, post-hoc analysis): best effects | Subjective Rating of Pain, Adjusted Mean (MMRM) ([3]; 10 mg IP2015 single oral dose): 11.7 mm | thermal sensory limen warm test (QST) ([3]; IP2015 versus pregabalin, post-hoc analysis): improved effects compared to pregabalin

Reference: patent EP4608400B1, “COMPOUND FOR TREATMENT OF PAIN” (Initiator Pharma A/S, priority 2022, dated 2024)
